PubChem BioAssay (NCI)
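Five compound concentrations were applied to cells in 96-well plates for 48 hours; endpoints were derived by simple linear interpolation of the resulting dose-response curve. GI50: concentration for 50% inhibition of growth. The concentration for full growth arrest is given as TGI.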

Experiments:
Assay in all cases: NCI-60 cell line screen, 48 h
EKVX NSCLC = test system: EKVX NSCLC
HT29 colon = test system: HT29 colon
MALME-3M melanoma = test system: MALME-3M melanoma
SF-539 CNS = test system: SF-539 CNS
SK-OV-3 ovarian = test system: SK-OV-3 ovarian
K-562 leukemia = test system: K-562 leukemia
TK-10 renal = test system: TK-10 renal
SW-620 colon = test system: SW-620 colon
OVCAR-3 ovarian = test system: OVCAR-3 ovarian
SR leukemia = test system: SR leukemia

SMILES	GI50 (EKVX NSCLC) [µM]	TGI (EKVX NSCLC) [µM]	GI50 (HT29 colon) [µM]	TGI (HT29 colon) [µM]	GI50 (MALME-3M melanoma) [µM]	TGI (MALME-3M melanoma) [µM]	GI50 (SF-539 CNS) [µM]	TGI (SF-539 CNS) [µM]	GI50 (SK-OV-3 ovarian) [µM]	TGI (SK-OV-3 ovarian) [µM]	GI50 (K-562 leukemia) [µM]	TGI (K-562 leukemia) [µM]	GI50 (TK-10 renal) [µM]	TGI (TK-10 renal) [µM]	GI50 (SW-620 colon) [µM]	TGI (SW-620 colon) [µM]	GI50 (OVCAR-3 ovarian) [µM]	TGI (OVCAR-3 ovarian) [µM]	GI50 (SR leukemia) [µM]	TGI (SR leukemia) [µM]
CC1SC(c2cccs2)N(NC(=O)C(O)c2ccccc2)C1=O (stereo not given)	> 100	> 100	> 100	> 100	> 100	> 100	> 100	> 100	> 100	> 100	> 100	> 100	> 100	> 100	> 100	> 100	> 100	> 100		
O=C1c2cc3c(cc2-c2c1c1ccc([N+](=O)[O-])cc1c(=O)n2CCCCl)OCO3	6.13	> 100	1.07	> 100			0.145			> 100		> 100	> 54.3	> 100	0.263	> 100	4.8	> 100	0.0158	27.8
COc1ccc2c(CNCCCCO)cc3cc4c(cc3c2c1)OCO4	2.78	11.4	1.29	6.87	1.65	4.08	1.26	4.13	4.2	23.8	1.07	20.3	1.85	9.98	0.228	2.35	0.984	4.95		
Cc1cc2c(=O)cc(-c3ccc(Cl)cc3)oc2c(C(=O)O)c1C		> 100		> 100		> 100		> 100		> 100		> 100		> 100		> 100		> 100		
C[n+]1c2ccccc2c(NC2CCNCC2)c2[nH]c3ccccc3c21	0.391	5.39	0.18	2.64	1.35	3.55	1.48	6.83	0.302	3			2.33	8.53	1.23	6.73	0.969	5.87	1.7	> 100
CCOC(=O)[C@H]1Nc2ccc(O)cc2C2c3ccccc3CC21 (stereo not given in full)		> 100		> 100		> 100		> 100				> 100		> 100		> 100		91.8		
Cc1ccc(/C=C2\CCOC2=O)cc1			> 100	> 100	> 100	> 100	> 100	> 100	> 100	> 100	> 100	> 100	> 100	> 100	> 100	> 100	> 100	> 100	> 100	> 100
CCOc1ccc2c(c1)/C(=C\C=C\C1CC(C)C3CC(OCC)CCC3N1CC)CC(C)N2CC (stereo not given)			0.521	1.69	1.61	3.42	1.27	2.68	0.596	1.92	0.685	2.62	1.5	2.93	0.73	2.59	0.915	2.2	0.412	2.75
O=c1c2ccccc2nc(-c2ccc(Cl)cc2)n1O		77.9		> 100				64.7		> 100		> 100		88		> 100		> 100		
Cc1ccccc1NC(=O)NC(CC(N)=O)c1ccc2c(c1)nc(-c1cccc(Oc3ccc(C(C)(C)C)cc3)c1)n2CCCN1CCCCC1C (stereo not given)	5.37	11.5	1.95	3.89	1.88	3.98	1.82	3.77	10.9	23.9			4.28	9.01	1.84	3.49	2.57	6.35		
Cn1c(=O)c(Cc2ccc(F)cc2F)cc2cnc(NC3CCOCC3)nc21			> 25	> 25	> 25	> 25	> 25	> 25	> 25	> 25	> 20.1	> 25	14.5	> 25	> 25	> 25	> 25	> 25	> 25	> 25
Oc1ccc2ccccc2c1/C=N\Nc1ccccn1	0.656	> 21.6	39.1	> 100			0.529	> 26.8	0.64	> 55	0.426	> 100	4.85	> 100	0.588	> 100	0.349	> 56.8	0.357	> 100
O=C1NC(=NCc2ccccn2)S/C1=C\c1ccc2ncccc2c1			15	> 25	> 13.1	> 23.3	7.54	> 25	8.59	> 23.5	8.29	> 25	6.06	> 20.2	7.81	> 25	12.6	> 25	6	24.8
Cc1ccc(Cl)cc1Nc1nc(C(F)(F)F)ccc1C(=O)Oc1ccc(Cl)cc1	7.26	22.8	13.3	> 100			12	27.1	12.2	37.4	4.37	15	5.57	18.6	17	> 100	2.55	8.81		
COc1cc(/C=C/C(=O)c2ccc(Nc3nc(Nc4ccc(F)cc4)nc(Nc4ccc(F)cc4)n3)cc2)cc(OC)c1OC	59.1	> 100	9.36	> 100	17.1	82.4	11.8	> 100	80.7	> 100	3	> 100	35.8	> 100	7.28	> 100	> 100	> 100		
O=C1c2cccnc2-c2nc(-c3ccc([N+](=O)[O-])cc3)cc3c2c1nc1ccccc13	10.7	44.6	11.9	26.3	2.15	6.32	3.05	11.3	11.4	39	20.7	> 100	8.41	24.9	3.21	15.6	0.261	1.74		

SMILES	GI50 (EKVX NSCLC) [µM]	TGI (EKVX NSCLC) [µM]	GI50 (HT29 colon) [µM]	TGI (HT29 colon) [µM]	GI50 (MALME-3M melanoma) [µM]	TGI (MALME-3M melanoma) [µM]	GI50 (SF-539 CNS) [µM]	TGI (SF-539 CNS) [µM]	GI50 (SK-OV-3 ovarian) [µM]	TGI (SK-OV-3 ovarian) [µM]	GI50 (K-562 leukemia) [µM]	TGI (K-562 leukemia) [µM]	GI50 (TK-10 renal) [µM]	TGI (TK-10 renal) [µM]	GI50 (SW-620 colon) [µM]	TGI (SW-620 colon) [µM]	GI50 (OVCAR-3 ovarian) [µM]	TGI (OVCAR-3 ovarian) [µM]	GI50 (SR leukemia) [µM]	TGI (SR leukemia) [µM]
O=C(/C=N/O)c1c(-c2ccccc2)[nH]c(-c2ccccc2)c1-c1ccccc1		19		61		32.9		26.9		35.1		> 100		40.8		48.7		58.7		
CC(CN(CP(=O)([O-])[O-])CP(=O)([O-])[O-])N(CP(=O)([O-])[O-])CP(=O)([O-])[O-].N[C@@H]1CCCC[C@@H]1N.[Pt+2] (stereo not given)	> 100	> 100	> 100	> 100	> 100	> 100	> 100	> 100	> 100	> 100	> 100	> 100	> 100	> 100	> 100	> 100	> 100	> 100		
CC(=O)OCCOCNC(=S)N/N=C(\C)c1ccco1		> 100		> 100		> 100		> 100		> 100		> 100		> 100		> 100		> 100		
O=S1(=O)CSc2ccc3ccccc3c2-c2c1ccc1ccccc21				> 100		> 100		> 100				> 100		> 100		> 100		> 100		> 100
COc1ccc(/C=C(/C(=O)N2CCNCC2)c2cc(OC)c(OC)c(OC)c2)cc1O	6.43	> 100	7.75	> 100			2.22	6.51	4.18	> 100	1.6	> 100	79.4	> 100	3.69	> 100	2.45	7.1	0.642	> 100
CC(=O)O[C@H]1CC[C@@]2(C)C(=CC[C@@H]3C2CC[C@]2(C)Nc4oncc4CC32)C1 (stereo not given in full)		> 100		> 100		82.2		> 100		> 100		21.1		> 100		> 100		30.7		
COC(=O)/C(C#N)=C1\N=NNN1CCCc1ccccc1		> 100		> 100		> 100		> 100		> 100		> 100		> 100		> 100		> 100		
CCN(CCCl)CCNc1c2ccccc2nc2ccc(OC)cc12		3.49		2.13		2.31		2.34		3.81		2.51		5.82		2.04		4.71		
NC(=O)NC(=O)CI			8.97	25.1	1.42	3.32	9.5	23	27.4	> 56.2	1.03	3.6			1.68	3.57	1.92	3.45	2.52	7.69
CCOc1ccc(NC(=O)C2=C(C)NC(C)=C(C(=O)Nc3ccc(OCC)cc3)C2c2ccc([N+](=O)[O-])cc2)cc1		> 100		86		> 100		> 100		> 100		> 100		> 100		> 100		> 100		
CC1=C(C(=O)Nc2ccc(F)c(Cl)c2)C(c2cccc(Cl)c2)NC(=O)N1 (stereo not given)	24.2	72.6	14.8	30.1			19.6	37.2	19.1	44.6			15.8	41.6	18.9	40.7	19.5	56.2		
C[Si](C)(C)/C(Br)=C\CCN1C(=O)CCC1O (stereo not given)		> 100		> 100		> 100		> 100		> 100		> 100		> 100		> 100		> 100		
CC(C)(C)c1ccccc1NS(=O)(=O)c1ccccc1		> 100		> 100		> 100		> 100		> 100		> 100		> 100		> 100		> 100		
Cc1nc2cc(O)c(O)cc2cc1Oc1ccc(NC(=O)Nc2ccc(Cl)c(Cl)c2)cc1			11.9	> 32.5	8.6	26	8.86	22.7	11.7	> 32.5	6.93	29.6	14.2	> 32.5	4.8	> 32.5	8.52	19.9	1.56	12.3
CCCCCCCCCCCCC(Br)C(=O)SCCNC(=O)CCNC(=O)[C@@H](O)C(C)(C)COP(=O)(O)OP(=O)(O)OCC1OC(n2cnc3c(N)ncnc32)C(O)C1OP(=O)(O)O (stereo not given in full)		> 56.5		> 56.5		> 56.5		> 56.5		> 56.5				> 56.5		> 56.5		> 56.5		
Cc1cc(S(N)(=O)=O)c(S/C(=N\NS(=O)(=O)c2ccc(Cl)cc2)c2ccc(Cl)cc2)cc1Cl	> 100	> 100					> 100	> 100	> 100	> 100	45.3	> 100	> 100	> 100	> 100	> 100	> 100	> 100	29.1	> 100
